The subject of experiment [1] is Nucleic Acid. Description: Induction of DNA cleavage in supercoiled pGL2 DNA assessed as open circular DNA form-2 under hypoxic condition with NADPH:cytochrome P450 enzyme system at 5 to 25 uM after 16 hrs by agarose gel electrophoresis. The format is nucleic-acid assay.
Experiment [2] has as its system V79. Description: Cytotoxicity against chinese hamster V79 cells under aerobic condition at 2.5 uM after 7 days by crystal violet staining. The class given is functional, Cricetulus griseus.
The subject of experiment [3] is V79. Description: Hypoxic cytotoxicity ratio, concentration required to kill 99% chinese hamster V79 cells under aerobic condition to hypoxic condition. The class given is functional, Cricetulus griseus.
The subject of experiment [4] is V79. Description: Cytotoxicity against chinese hamster V79 cells under anaerobic condition at 0.21 uM after 7 days by crystal violet staining. The format is functional, Cricetulus griseus.
For experiment [5], the system named is Nucleic Acid. Description: Induction of DNA cleavage in supercoiled pGL2 DNA assessed as open circular DNA form-2 under hypoxic condition with NADPH:cytochrome P450 enzyme system at 25 uM after 16 hrs by agarose gel electrophoresis in presence of radical scavenging agent ethanol. The format is nucleic-acid assay.
For experiment [6], the system named is Nucleic Acid. The experiment is described as follows: Induction of DNA cleavage in supercoiled pGL2 DNA assessed as open circular DNA form-2 under hypoxic condition with NADPH:cytochrome P450 enzyme system at 25 uM after 16 hrs by agarose gel electrophoresis in presence of radical scavenging agent methanol. The format is nucleic-acid assay.
Experiment [7] has as its system Nucleic Acid. The experiment is described as follows: Induction of DNA cleavage in supercoiled pGL2 DNA assessed as open circular DNA form-2 under hypoxic condition with NADPH:cytochrome P450 enzyme system at 25 uM after 16 hrs by agarose gel electrophoresis in presence of radical scavenging agent mannitol. The class given is nucleic-acid assay.
Experiment [8] has as its system Nucleic Acid. The experiment is described as follows: Induction of DNA cleavage in supercoiled pGL2 DNA assessed as open circular DNA form-2 under hypoxic condition with NADPH:cytochrome P450 enzyme system at 25 uM after 16 hrs by agarose gel electrophoresis in presence of radical scavenging agent DMSO. The class given is nucleic-acid assay.
Experiment [9] has as its system Nucleic Acid. Description: Induction of DNA cleavage in supercoiled pGL2 DNA assessed as open circular DNA form-2 under hypoxic condition with NADPH:cytochrome P450 enzyme system at 25 uM after 16 hrs by agarose gel electrophoresis in presence of radical scavenging agent t-butanol. The format is nucleic-acid assay.
Experiment [10] has as its system Nucleic Acid. Description: Induction of DNA cleavage in supercoiled pGL2 DNA assessed as open circular DNA form-2 under hypoxic condition with xanthine/xanthine oxidase enzyme system at 20 uM after 16 hrs by agarose gel electrophoresis. The class given is nucleic-acid assay.
Experiment [11] concerns V79. The experiment is described as follows: Cytotoxicity against chinese hamster V79 cells under anaerobic condition at 2.0 uM after 7 days by crystal violet staining. The class given is functional, Cricetulus griseus.
The subject of experiment [12] is V79. The experiment is described as follows: Cytotoxicity against chinese hamster V79 cells under aerobic condition at 30 uM after 7 days by crystal violet staining. The format is functional, Cricetulus griseus.

Experimental findings from ChEMBL document CHEMBL1158531, “DNA strand cleaving properties and hypoxia-selective cytotoxicity of 7-chloro-2-thienylcarbonyl-3-trifluoromethylquinoxaline 1,4-dioxide” (2010) are described below.

Calls of active or inactive are those of the source. The rule behind the calls is not given here.

As to `O=C(c1cccs1)c1c(C(F)(F)F)[n+]([O-])c2ccc(Cl)cc2[n+]1[O-]`, the outcome in the experiment with Nucleic Acid [1] and in the experiment with Nucleic Acid [10] was Active. Further, the Activity in the experiment with V79 [2] and with V79 [4] was 99% each time. Moreover, the Ratio in the experiment with V79 [3] is listed as 16. Further, the result in the experiment on Nucleic Acid [5], with Nucleic Acid [6], in the experiment with Nucleic Acid [7], in the experiment with Nucleic Acid [8] and with Nucleic Acid [9] was inactive.
Turning to `Nc1n[n+]([O-])c2ccccc2[n+]1[O-]` [TIRAPAZAMINE], the Ratio with V79 [3] worked out at 75. For the same compound, the Activity in the experiment with V79 [11] and in the experiment with V79 [12] was 99% in each case.
Take `O=C(c1cccs1)c1nc2cc(Cl)ccc2[n+]([O-])c1C(F)(F)F`: the outcome in the experiment with Nucleic Acid [1] was inactive.
In the case of `O=C(c1cccs1)c1c(C(F)(F)F)nc2ccc(Cl)cc2[n+]1[O-]`, the outcome with Nucleic Acid [1] was inactive.
